Assay results published in ChEMBL document CHEMBL1122489, “Pyrimidine derivatives. 4. Synthesis and antihypertensive activity of 4-amino-2-(4-cinnamoylpiperazino)-6,7-dimethoxyquinazoline derivatives” (J Med Chem, 1983).

What was measured:
Format in all cases: functional
[1] = tested on: Rattus norvegicus; assay: Antihypertensive activity rating in conscious SHR after 1 hr post dose at 3 mg/kg (po)
[2] = tested on: Rattus norvegicus; assay: Antihypertensive activity rating in conscious SHR after 24 hr post dose at 0.3 mg/kg (po)
[3] = tested on: Rattus norvegicus; assay: Antihypertensive activity rating in conscious SHR after 24 hr post dose at 3 mg/kg (po)
[4] = tested on: Rattus norvegicus; assay: Antihypertensive activity rating in conscious SHR after 3 hr post dose at 0.3 mg/kg (po)
[5] = tested on: Rattus norvegicus; assay: Antihypertensive activity rating in conscious SHR after 3 hr post dose at 1 mg/kg (po)
[6] = tested on: Rattus norvegicus; assay: Antihypertensive activity rating in conscious SHR after 3 h post dose at 3 mg/kg (po)
[7] = tested on: Rattus norvegicus; assay: Antihypertensive activity rating in conscious SHR after 6 hr post dose at 0.3 mg/kg (po)
[8] = tested on: Rattus norvegicus; assay: Antihypertensive activity rating in conscious SHR after 6 hr post dose at 1 mg/kg (po)
[9] = tested on: Rattus norvegicus; assay: Antihypertensive activity rating in conscious SHR after 6 hr post dose at 3 mg/kg (po)
[10] = tested on: Rattus norvegicus; assay: Antihypertensive activity rating in conscious SHR after 1 hr post dose at 0.3 mg/kg (po)
[11] = tested on: Rattus norvegicus; assay: Antihypertensive activity rating in conscious SHR after 1 hr post dose at 1 mg/kg (po)
[12] = tested on: Rattus norvegicus; assay: Maximum percent decrease in blood pressure in SHR dosed at 1 mg/kg (hour post dose in parentheses)
[13] = tested on: Rattus norvegicus; assay: Maximum percent decrease in blood pressure in SHR dosed at 0.3 mg/kg (hour post dose in parentheses)
[14] = tested on: Rattus norvegicus; assay: Maximum percent decrease in blood pressure in SHR dosed at 3 mg/kg (hour post dose in parentheses)
[15] = tested on: Rattus norvegicus; assay: Effect on blood pressure (initial) in renal hypertensive rats dosed at 10 mg/kg
[16] = tested on: Rattus norvegicus; assay: Effect on blood pressure in renal hypertensive rats dosed at 10 mg/kg after 3 h
[17] = tested on: Rattus norvegicus; assay: Effect on blood pressure in renal hypertensive rats dosed at 10 mg/kg after 6 h
[18] = tested on: Rattus norvegicus; assay: Effect on blood pressure in renal hypertensive rats dosed at 3 mg/kg after 1 h
[19] = tested on: Rattus norvegicus; assay: Effect on blood pressure in renal hypertensive rats dosed at 3 mg/kg after 12 h
[20] = tested on: Rattus norvegicus; assay: Effect on blood pressure in renal hypertensive rats dosed at 3 mg/kg after 24 h
[21] = tested on: Rattus norvegicus; assay: Effect on blood pressure in renal hypertensive rats dosed at 3 mg/kg after 6 h
[22] = tested on: Rattus norvegicus; assay: Effect on mean blood pressure (initial) in renal hypertensive rats dosed at 3 mg/kg
[23] = species: Rattus norvegicus; assay: Compound was tested for alpha-adrenoceptor blocking activity by its ability to antagonize norepinephrine contraction in the rat thoracic aorta; details: read-out: pA2 (converted)
[24] = tested on: Rattus norvegicus; assay: Effect on blood pressure in renal hypertensive rats dosed at 10 mg/kg after 1 h
[25] = tested on: Rattus norvegicus; assay: Effect on blood pressure in renal hypertensive rats dosed at 10 mg/kg after 12 h
[26] = tested on: Rattus norvegicus; assay: Effect on blood pressure in renal hypertensive rats dosed at 10 mg/kg after 24 h
[27] = Potency ratio in rat thoracic aorta
[28] = tested on: Rattus norvegicus; assay: Antihypertensive activity rating in conscious SHR after 24 hr post dose at 1 mg/kg (po)
[29] = tested on: Rattus norvegicus; assay: Effect on blood pressure in renal hypertensive rats dosed at 3 mg/kg after 3 h
[30] = tested on: Rattus norvegicus; assay: Effect on blood pressure in renal hypertensive rats dosed at 10mg/kg, po after 1 h
[31] = tested on: Rattus norvegicus; assay: Effect on blood pressure in renal hypertensive rats dosed at 10 mg/kg, po after 24 h
[32] = tested on: Rattus norvegicus; assay: Effect on blood pressure in renal hypertensive rats dosed at 10 mg/kg, po after 3 h
[33] = tested on: Rattus norvegicus; assay: Effect on blood pressure in renal hypertensive rats dosed at 10mg/kg, po after 6 h
[34] = tested on: Rattus norvegicus; assay: Effect on blood pressure in renal hypertensive rats dosed at 3 mg/kg, po after 1 h
[35] = tested on: Rattus norvegicus; assay: Effect on blood pressure in renal hypertensive rats dosed at 3 mg/kg, po after 24 h
[36] = tested on: Rattus norvegicus; assay: Effect on blood pressure in renal hypertensive rats dosed at 3 mg/kg, po after 3 h
[37] = tested on: Rattus norvegicus; assay: Effect on blood pressure in renal hypertensive rats dosed at 3 mg/kg, po after 6 h
[38] = tested on: Rattus norvegicus; assay: Effect on mean blood pressure (initial) in renal hypertensive rats dosed at 3 mg/kg, po
[39] = tested on: Rattus norvegicus; assay: Effect on blood pressure (initial) in renal hypertensive rats dosed at 10mg/kg, po

`CCOc1ccc(/C=C/C(=O)N2CCN(c3nc(N)c4cc(OC)c(OC)cc4n3)CC2)cc1` gave an Activity [1] of 0, an Activity [2] of 1 and an Activity [3] of 0. It also gave an Activity [4] of 0, an Activity [5] of 1 and an Activity [6] of 1. The Activity [7] was 0, the Activity [8] was 2 and the Activity [9] was 2. The Activity [10] was 0, the Activity [11] was 0 and the Decrease [12] was 21%. It also gave a Decrease [13] of 13%, a Decrease [14] of 24% and a Mean blood pressure [15] of 204 mmHg. It also gave a Mean blood pressure [16] of -16.3 mmHg, a Mean blood pressure [17] of -19.1 mmHg and a Mean blood pressure [18] of -4 mmHg. The Mean blood pressure [19] was -10.6 mmHg, the Mean blood pressure [20] was -2.6 mmHg and the Mean blood pressure [21] was -14.5 mmHg. For the same molecule, the Mean blood pressure [22] was 203 mmHg, the Kb [23] was 2.19 nM and the Mean blood pressure [24] was -6.2 mmHg. The Mean blood pressure [25] was -15.5 mmHg, the Mean blood pressure [26] was -10.4 mmHg and the Ratio [27] was 0.02. For the same molecule, the Activity [28] was 0 and the Mean blood pressure [29] was -11.7 mmHg.

`COc1cc2nc(N3CCN(C(=O)/C=C/c4ccco4)CC3)nc(N)c2cc1OC.Cl` showed an Activity [1] of 3, an Activity [2] of 0 and an Activity [3] of 0. The Activity [4] was 1, the Activity [5] was 1 and the Activity [6] was 2. It also gave an Activity [7] of 1, an Activity [8] of 2 and an Activity [9] of 2. For the same molecule, the Activity [10] was 1, the Activity [11] was 2 and the Decrease [12] was 28%. It also gave a Decrease [13] of 15%, a Decrease [14] of 41% and a Mean blood pressure [15] of 181 mmHg. It also gave a Mean blood pressure [16] of -16.3 mmHg, a Mean blood pressure [17] of -17.4 mmHg and a Mean blood pressure [18] of -17.1 mmHg. For the same molecule, the Mean blood pressure [20] was -5.2 mmHg, the Mean blood pressure [21] was -18.3 mmHg and the Mean blood pressure [22] was 193 mmHg. It also gave a Kb [23] of 0.141 nM, a Mean blood pressure [24] of -17.9 mmHg and a Mean blood pressure [26] of -11.7 mmHg. The Ratio [27] was 0.4, the Activity [28] was 0 and the Mean blood pressure [29] was -16.9 mmHg.

For `COc1cc2nc(N3CCN(C(=O)c4ccco4)CC3)nc(N)c2cc1OC.Cl` [PRAZOSIN HYDROCHLORIDE], the Activity [1] was 2, the Activity [2] was 0 and the Activity [3] was 0. For the same molecule, the Activity [4] was 1, the Activity [5] was 2 and the Activity [6] was 1. For the same molecule, the Activity [7] was 1, the Activity [8] was 1 and the Activity [9] was 1. For the same molecule, the Activity [10] was 1, the Activity [11] was 2 and the Decrease [12] was 25%. It also gave a Decrease [13] of 19%, a Decrease [14] of 27% and a Mean blood pressure [30] of -25.6 mmHg. For the same molecule, the Mean blood pressure [31] was -8.9 mmHg, the Mean blood pressure [32] was -17.6 mmHg and the Mean blood pressure [33] was -14.7 mmHg. It also gave a Mean blood pressure [34] of -17.9 mmHg, a Mean blood pressure [35] of -3.3 mmHg and a Mean blood pressure [36] of -15.5 mmHg. The Mean blood pressure [37] was -14.5 mmHg, the Mean blood pressure [38] was 197 mmHg and the Kb [23] was 0.0513 nM. It also gave a Mean blood pressure [39] of 187 mmHg, a Ratio [27] of 1 and an Activity [28] of 0.
